Results from patent US7754699B2, “Antiviral nucleosides” (Roche Palo Alto LLC, priority 2005, dated 2010).
≈ marks a conversion by molar mass, not a printed value. Where two headings read alike, the source gives them in different places.

Experiments:
[1] = Stability in simulated gastric fluid; type: physicochemical; details: simulated gastric fluid pH 1.2, 37° C.; read-out: SGF T1/2 (converted)
Protocol: (§1) Particularly relevant are water solubility, partition coefficient and stability in gastric and intestinal fluids. […] The solubility in water of a orally administered prodrug should be greater than at least about 0.1 mg/mL for optimal formulation and the half-lives in simulated gastric fluid and simulated intestinal fluid should be 1-2 h and 2-4 h respectively to allow sufficient time to traverse the stomach and be absorbed in the intestine.

in vitro = in vitro ADME; details: human, Caco-2, Caco-2 (2-7d) Papp
Protocol: To further evaluate potential behavior in human subjects, the transport through Caco-2 cells was evaluated for the putative prodrugs. Caco-2 cells are commonly used to evaluated the potential absorption/permeability of molecules (G. Gaviraghi et al. in Pharmacokinetic optimization in drug research. Biological, Pharmacokinetic and Computational Strategies. B. Testa et al. eds. Wiley Interscience VCH, Zurich 2001 pp 3-14).
Powders of Krebs-Henseleit buffer, calcium chloride dihydrate, and sodium bicarbonate were purchased from Sigma (St. Louis, Mo.). Caco-2 cells (Passage ˜100) were obtained from Roche Basel. DMEM/high medium, 4-(2-hydroxyethyl)-1-piperazineethane-sulfonic acid (HEPES), and bovine serum were obtained from JRH Bioscience (Lenexa, Kans.). MEM nonessential amino acids, L-glutamine, penicillin, and streptomycin were obtained from GIBCO Labs, Life Tech. LLC (Grand Island, N.Y.). Snapwell cell culture inserts ([…], 1.12 cm^2, 0.4 μm pore size) were obtained from Costar (Cambridge, Mass.).
Cells were grown in 75-cm^2 flasks and maintained at 37° C. in an atmosphere of 5% CO2 and 95% air. Culture media consisted of DMEM/high medium supplemented with 5% bovine serum, 25 mM HEPES, 1% MEM non-essential amino acids, 1% L-glutamine, 100 U/mL penicillin, and 100 μg/mL streptomycin. Cultures were passaged every week at a split ratio of 1-3. For the permeability studies, Caco-2 cells at passage number 110-120 were plated at a density of 400,000 cells/cm^2 on Transwell polycarbonate filters in Snapwell inserts and allowed to culture for 7 days prior to use.
Krebs-Henseleit bicarbonate buffer containing 10 mM glucose and 2.5 mM CaCl2 adjusted to pH 6.5 and 7.4 were prepared per packet instructions. Powder salts were quantitatively dissolved in about 90% of required volume with Millipore water. Calcium chloride dihydrate and sodium bicarbonate were added before pH adjustment with 1N HCl or 1N NaOH. Additional Millipore water was added to bring the solution to final volume. The solution was sterilized by filtration using membrane with a porosity of 0.22 microns and stored in the refrigerator ([…]) until use.
Differentiated cells were obtained from Cell Culture Core Facility and allowed to equilibrate at 37° C. in an atmosphere of 5% CO2 and 95% air. Snapwells inserts, containing caco-2 monolayers were rinsed in 37° C. equilibrated Krebs-Henseleit pH 7.4 buffer.
The cell insert was utilized as the diffusion chamber. The pH of the Krebs-Henseleit buffer in the apical and basolateral chambers was 6.5 and 7.4, respectively, and the initial concentration of substrate in apical side was 100 μM. […]
The Papp was calculated using the following formula: […]

[2] = Stability in simulated intestinal fluid; type: physicochemical; details: simulated intestinal fluid pH 7.4, 37° C.; read-out: SIF T1/2 (converted)
Protocol: as §1

Solubility = type: physicochemical
Protocol: as §1

[3] = Experimentally determined distribution coefficient; type: physicochemical; details: octanol/buffered aqueous solution, pH 7.4; read-out: log D (distribution coefficient)
Source text: The expression PO/W as used herein refers to the octanol/water partition coefficient. The expression clogP as used herein refers to the calculated PO/W. Computer programs which calculate PO/W are readily available to the pharmaceutical and medicinal chemist. The term distribution coefficient refers to the experimentally determined partition coefficient between octanol and a buffered aqueous solution. The partition coefficient and distribution coefficient are generally similar but the latter is a function of the pH of the aqueous solution whereas the PO/W is independent of pH.

HCV = details: monotherapy; cited from earlier work
[4] = aqueous media, water, or buffer pH 6.5, read-out: Solubility
[5] = simulated gastric fluid (SGF), simulated gastric fluid, read-out: Solubility in SGF
[6] = simulated intestinal fluid (SIF), fassgf or other biorelevant, media is SIF, read-out: Solubility

SMILES: CC(C)C(=O)OC[C@H]1O[C@@H](n2ccc(N)nc2=O)[C@](C)(F)[C@@H]1OC(=O)C(C)C [I-2, Isobutyric acid (2R,3R,4R,5R)-5-(4-amino-2-oxo-2H-pyrimidin-1-yl)-4-fluoro-3-isobutyryloxy-4-methyl-tetrahydro-furan-2-ylmethyl ester]
- half-life [1]: 25.1 h
- Papp A→B at 30 min, 100 μM (in vitro): 3.93 ×10⁻⁶ cm/s
- half-life [2]: 866 h
- solubility (Solubility; [4]): 180 µg/mL (≈ 0.451 mM)
- solubility (Solubility; [5]): 13300 µg/mL (≈ 33.3 mM)
- logD [3]: 1.67

SMILES: CCC(=O)OC[C@H]1O[C@@H](n2ccc(N)nc2=O)[C@](C)(F)[C@@H]1OC(=O)CC [I-3, Propionic acid (2R,3R,4R,5R)-5-(4-amino-2-oxo-2H-pyrimidin-1-yl)-4-fluoro-4-methyl-3-propionyloxy-tetrahydro-furan-2-ylmethyl ester]
- half-life [1]: 9 h
- half-life [2]: 72 h
- melting point: 185.2 to 186 °C
- solubility (Solubility; [5]): 13600 µg/mL (≈ 36.6 mM)
- solubility (Solubility; [6]): 3700 µg/mL (≈ 9.96 mM)
- logD [3]: 0.9

SMILES: CC(C)COC(=O)OC[C@H]1O[C@@H](n2ccc(N)nc2=O)[C@](C)(F)[C@@H]1OC(=O)OCC(C)C [I-4, Carbonic acid (2R,3R,4R,5R)-5-(4-amino-2-oxo-2H-pyrimidin-1-yl)-4-fluoro-2-isobutoxycarbonyloxymethyl-4-methyl-tetrahydro-furan-3-yl ester isobutyl ester]
- half-life [1]: > 7 h
- Papp A→B at 30 min, 100 μM (in vitro): 6.4 ×10⁻⁶ cm/s
- half-life [2]: > 15 h
- melting point: 210 to 211.5 °C
- solubility (Solubility; [5]): 160 µg/mL (≈ 0.348 mM)
- solubility (Solubility; [6]): 13 µg/mL (≈ 0.0283 mM)

SMILES: CCCOC(=O)OC[C@H]1O[C@@H](n2ccc(N)nc2=O)[C@](C)(F)[C@@H]1OC(=O)OCCC.Cl [I-5, Carbonic acid (2R,3R,4R,5R)-5-(4-amino-2-oxo-2H-pyrimidin-1-yl)-4-fluoro-4-methyl-2-propoxycarbonyloxymethyl-tetrahydro-furan-3-yl ester propyl ester; hydrochloride salt]
- half-life [1]: > 10.4 h
- Papp A→B at 30 min, 100 μM (in vitro): 13.4 ×10⁻⁶ cm/s
- half-life [2]: > 11 h
- melting point: 192 to 194.4 °C
- solubility (Solubility; [4]): 130 µg/mL

SMILES: C[C@@]1(F)[C@H](O)[C@@H](CO)O[C@H]1n1ccc(N)nc1=O [I-6, 4-amino-1-((2R,3R,4R,5R)-3-fluoro-4-hydroxy-5-hydroxymethyl-3-methyl-tetrahydro-furan-2-yl)-1H-pyrimidin-2-one, reference compound]
- half-life [1]: > 12 h
- Papp A→B at 30 min, 100 μM (in vitro): 0.4 ×10⁻⁶ cm/s
- half-life [2]: > 12 h
- solubility (Solubility; [4]): 76000 µg/mL (≈ 293 mM)

SMILES: NC(=O)c1ncn([C@@H]2O[C@H](CO)[C@@H](O)[C@H]2O)n1 [ribavirin, 1-((2R,3R,4S,5R)-3,4-Dihydroxy-5-hydroxymethyl-tetrahydro-furan-2-yl)-1H-[1,2,4]triazole-3-carboxylic acid amide]
- reduces serum amino transferase levels to normal (HCV): 40 % of patients
- serum levels of HCV-RNA (HCV): does not lower
